Literature values in publication PMC7473964, “Application of Pharmacokinetic-Pharmacodynamic Modeling to Inform Translation of In Vitro NaV1.7 Inhibition to In Vivo Pharmacological Response in Non-human Primate” (Pharmaceutical Research, 2020).

Test system: sense of smell (hyposmia) as biomarker of on-target NaV1.7 pharmacology
Design: method as in PMID 31172446
Conditions: healthy volunteers, first-in-human study

O=C(NS(=O)(=O)N1CCC1)c1cc(C2CC2)c(OCC23CC4CC(CC(C4)C2)C3)cc1F [GDC-0276]
Hyposmia in clinical study: a couple of incidents of hyposmia were reported
